# From patent EP2379549B1, “7-AZAINDIRUBINS, 7'-AZAINDIRUBINS, 7-7'-DIAZAINDIRUBIN AND THE CORRESPONDING 3'-OXIME ETHER DERIVATES: PRODUCTION THEREOF, THEIR PRODUCTION AND USE AS A MEDICAMENT” (Eisenbrand, Gerhard, priority 2008, dated 2010)
# Tests used:
# human cancer cell lines = assay: Antiproliferative activity against human cancer cell lines; format: cell-based
# C6 glioblastoma cells = settings: murine C6 glioblastoma cells; parent 5-methylindirubin; cited from earlier work
Compound,"antiproliferative activity as compared to the parent molecule, indirubin (human cancer cell lines)",effectiveness for inhibition of cells versus parent compound (C6 glioblastoma cells)
"O=C1Nc2ccccc2C1=C1Nc2ncccc2C1=O [E843, 7'-Azaindirubin]",markedly augmented,–
Cc1cc2c(cc1O)NC(=O)C2=C1Nc2ccccc2C1=O,–,as effective as the parent compound
